Marks after values point to notes of the source that are not given here.
Target: T1, Styrene monooxygenase (StyAB), FAD-dependent monooxygenase component (StyA) (Pseudomonas sp, UniProt O50214)
T1 construct: made in house; host or cells: Escherichia coli JM101
T1 sequence (O50214 1-415): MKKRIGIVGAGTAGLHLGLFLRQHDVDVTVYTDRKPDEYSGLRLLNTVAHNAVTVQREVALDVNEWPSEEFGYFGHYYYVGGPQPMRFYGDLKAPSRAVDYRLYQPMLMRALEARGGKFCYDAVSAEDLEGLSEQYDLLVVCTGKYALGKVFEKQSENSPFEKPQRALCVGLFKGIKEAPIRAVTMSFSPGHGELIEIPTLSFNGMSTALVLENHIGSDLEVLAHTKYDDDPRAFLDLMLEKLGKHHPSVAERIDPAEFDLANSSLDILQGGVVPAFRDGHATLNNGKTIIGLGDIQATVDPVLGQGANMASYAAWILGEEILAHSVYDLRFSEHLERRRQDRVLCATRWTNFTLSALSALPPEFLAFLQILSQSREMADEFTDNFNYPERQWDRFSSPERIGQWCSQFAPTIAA
Assay: Electroenzymatic epoxidation of styrene derivatives by StyA with direct electrochemical FAD regeneration
Assay type: biochemical
Settings: for ee-value: optical purity of the (S)-epoxide product of the electroenzymatic epoxidation
Experimental: Initial experiments on the electroenzymatic epoxidation were performed with trans-β-methyl styrene as substrate. Electrolyses were performed potentiostatically applying a cathode potential of −550 mV vs. Ag/AgClsat. No product formation was detectable when either StyA or FAD was omitted from the reaction medium. […] Similarly, a broad variety of diversely substituted vinylaromatic compounds could be transformed to the more than 98% optically pure corresponding (S) epoxides (Table 1).
StyA was enriched from recombinant Escherichia coli JM101 as described previously^[35]. The purity of the lyophilized biocatalyst was approximately 70% (as determined by SDS gel-electrophoresis).
Electrolyses were performed in a thermostatted stirred tank reactor. Cylindrical carbon felt served as cathode (working electrode) and the potential was adjusted versus a saturated Ag/AgClsat. reference electrode. The dimensions of the working electrode are given a macroscopic area (corresponding to an average of 27.1±2.1 mg cm^−2). Conditions of either a divided or an undivided cell were chosen. For the divided cell, the Pt-wire counter electrode was placed in a dialysis membrane; otherwise a Pt-foil (Ø1 cm) was used. After supplementing the reactor with the reaction components indicated a cathode potential of −550 mV vs. Ag/AgClsat was applied. In case of divided cell, O2 was supplied by heterogeneous intake of air (intake rates were estimated with a Hewlett Packard soap film flowmeter; under the conditions of an undivided cell, O2 was generated at the counter electrode.
Reaction rates (and enzyme performances calculated thereof were determined based on the product formation as determined by HPLC using protocols previously reported.^[34, 35]

[1] = potassium phosphate buffer 50 mM pH 7.5, T = 30° C., c(StyA) = 2.13 μM, c(FAD) = 300 μM, catalase 480 U mL^−1, substrate 2 mM, cathode 14 cm^2, −550 mV vs. Ag/AgClsat

SMILES: C=Cc1ccccc1
- Rate [1]: 28.1 U g^−1

SMILES: c1ccc([C@H]2CO2)cc1
- ee-value: 98.5%

SMILES: C=C(C)c1ccccc1
- Rate [1]: 14.6 U g^−1

SMILES: C[C@]1(c2ccccc2)CO1
- ee-value: 99.5%

SMILES: C1=Cc2ccccc2CC1
- Rate [1]: 58.9 U g^−1

SMILES: c1ccc2c(c1)CC[C@H]1O[C@@H]21
- ee-value: 99.2%

SMILES: C=Cc1cccc(Cl)c1
- Rate (as general conditions but T = 25° C., activity determined after 15 min): 27.7 [b] U g^−1

SMILES: Clc1cccc([C@H]2CO2)c1
- ee-value: 98.1%

SMILES: C[C@@H]1O[C@H]1c1ccccc1 [(1S,2S)-1-phenylpropylene oxide]
- ee-value: >99.9%
- Optical purity of product (substrate trans-β-methyl styrene, −550 mV vs. Ag/AgClsat, all reaction components present): practically enantiopure

SMILES: C/C=C/c1ccccc1 [trans-β-methyl styrene]
- Rate [1]: 35.5 U g^−1
